Like-named read-outs stand apart in the source and are kept apart here.
Columns and labels:
[1] = Caco-2 permeability assay; assay type: in vitro ADME, human; settings: human; for recovery at 120 min, 10 µM: Caco-2, % SSA recovered from the assay after 2 hours; for Papp B→A at 120 min, 10 µM: Caco-2, Caco-2
Procedure: Section 4: DMPK Methods and Further Discussion […]
Caco-2 Permeability studies: The permeability assay for SSA 1-6 and 10 was performed at Cyprotex Discovery Limited (Macclesfield, UK) and analysed at Cancer Research Horizons. SSA 1-6 and 10 were incubated at a final concentration of 10 uM with human intestinal Caco-2 cells at 37°C, 5% CO2 with a relative humidity of 95%. After 120 minutes the apical compartment inserts and the companion plates were separated, and the apical and basolateral samples were transferred. Incubations were conducted in duplicate and the fluorescent membrane integrity marker; Lucifer Yellow was co-incubated with the SSA compounds at the start of the assay. Compounds of known permeability were used as controls and were within acceptance criteria. Further processing is described in:
Sample preparation and liquid chromatography-mass spectrometry analysis.
Sample preparation and liquid chromatography-mass spectrometry analysis: All samples were centrifuged at 3500 rpm at 4°C for 10 min to precipitate protein and enable sampling of supernatant prior to appropriate dilution for liquid chromatography-mass spectrometry (LC-MS/MS analysis). […]
(1.5 µm, 50 x 2.1 mm) at a temperature of 40°C and a binary mobile phase gradient at a flow rate of […]
0.4 mL/min. […]
For the purpose of apparent permeability determination, samples were analysed using a Waters I-Class ultra-high-performance liquid chromatography (UHPLC) system coupled to a Waters Vion mass spectrometer (Waters, Elstree, UK). Separation of analytes was achieved used an Accucore Vanquish C18+ column (1.5 µm, 50 x 2.1 mm) at a temperature of 40°C and a binary mobile phase gradient at a flow rate of 0.4 mL/min. Initial LC conditions for SSA 1-4 comprised 66% solvent A (0.1% formic acid + 5 mM ammonium acetate in water), 33% solvent B (0.1% formic acid + 5 mM ammonium acetate in methanol); this was ramped to 63% B at 1.8 min and 95% B at 1.9 min, held for 0.5 min and then immediately returned to initial conditions and held for the remaining 0.5 min of the method. Initial LC conditions for SSA 5-10 comprised 54% solvent A (0.1% formic acid + 5 mM ammonium acetate in water), 46% solvent B (0.1% formic acid + 5 mM ammonium acetate in methanol); this was ramped to 67% B at 1.8 min and 95% B at 1.9 min, held for 0.5 min and then immediately returned to initial conditions and held for the remaining 0.5 min of the method.
Sample analysis was by electrospray ionisation in negative ion mode. The capillary voltage was 2.5 kV, desolvation gas was 600°C.
For the purpose of PK determination of SSA 5, samples were analysed using a Waters I-Class ultra-high-performance liquid chromatography (UHPLC) system coupled to a Waters Xevo TQ-XS mass spectrometer. Separation of analytes was achieved using an Accucore Vanquish C18+ column (1.5 µm, 50 x 2.1 mm) at a temperature of 40°C and a binary mobile phase gradient at a flow rate of 0.4 mL/min. Initial LC conditions comprised 54% solvent A (0.1% formic acid + 5 mM ammonium acetate in water), 46% solvent B (0.1% formic acid + 5 mM ammonium acetate in methanol); this was ramped to 67% B at 1.8 min and 95% B at 1.9 min, held for 0.5 min and then immediately returned to initial conditions and held for the remaining 0.5 min of the method. Sample analysis was by electrospray ionisation combined with multiple reaction monitoring in negative ion mode. The […]
Mean blood concentration-time profile: Within these studies SSAs 3 and 5 were dosed at 1 mg/kg, to female CD-1 mice (n=9 per SSA) via an intravenous tail vein bolus dose formulation as solutions in 2 % DMSO/98 % water. Blood taken from the mouse tail vein was extracted by protein precipitation.
SSA concentrations were calculated through UPLC-MS/MS techniques, with tolbutamide as the internal standard. The assay met the acceptance criteria with >7 calibration standards within ± 20% of nominal concentration. The lower limit of quantitation was 2 ng/mL for both compounds. PK […]

[2] = test system: PG lipid vesicles; experiment: Synthetic phospholipid vesicle membrane binding assay (fluorescence polarisation), PG vesicles; settings: lipid vesicles added to SSA (0.15 mM); n = 3; error = standard error; SSA alone set to 100 mP
Procedure: For intrinsically fluorescent SSAs 5, 6 and 8–12, FP titration experiments enabled the observation of SSA: phospholipid vesicle interactions. Here, an increase in FP value indicates an increase in the apparent size of the SSA as it interacts with the phospholipid vesicle. […]
Fluorescence polarisation: Lipid films were resuspended in Buffer (150 mM KCl, 10 mM HEPES, pH 7.4, 2 mM EGTA) and subjected to 9 freeze-thaw cycles in liquid nitrogen and extruded 20 times through a 200 nm polycarbonate membrane. Black bottom 96-well plates were prepared by serially diluting desired vesicle solution across the plate, the appropriate SSA solution (100 µL, 0.15 mM) was added to each well to give a total well volume of 200 µL. Fluorescent SSA solutions were set to a FP value of 100 mP. Data were acquired in endpoint mode. […]

[3] = 10 uM, 120 minutes, n = 2 technical repeats, read-out: Papp (B-A)
[4] = in words, read-out: Papp (B-A) class

Structure (SMILES)	recovery at 120 min, 10 µM ([1]; read-out: Recovery (A-B))	recovery at 120 min, 10 µM ([1]; read-out: Recovery (B-A))	Papp B→A at 120 min, 10 µM [1, 3]	increase in FP, PG [2]	Papp B→A at 120 min, 10 µM [1, 4]
O=C(NCCCS(=O)(=O)O)Nc1ccc(C(F)(F)F)cc1 [SSA 2]	97%	102%	1.7 ×10⁻⁶ cm/s	–	–
Cc1ccc2nc(-c3ccc(NC(=O)NCCC(=O)O)cc3)sc2c1 [SSA 9]	–	–	–	47 ± 1 mP	–
O=C(NCS(=O)(=O)O)Nc1ccccc1-c1nc2ccccc2s1 [SSA 5]	79%	107%	21 ×10⁻⁶ cm/s	43 ± 9 mP	> 10 ×10⁻⁶ cm/s
Cc1ccc2nc(-c3ccc(NC(=O)NCS(=O)(=O)O)cc3)sc2c1 [SSA 6]	59%	86%	11 ×10⁻⁶ cm/s	40 ± 4 mP	> 10 ×10⁻⁶ cm/s
O=C(NCS(=O)(=O)O)Nc1ccc(-c2nc3ccccc3s2)cc1 [SSA 8]	–	–	–	29 ± 1 mP	–
O=C(O)CNC(=O)Nc1ccc(C(F)(F)F)cc1 [SSA 4]	93%	96%	2.3 ×10⁻⁶ cm/s	–	–
O=C(NCS(=O)(=O)O)Nc1ccc(C(F)(F)F)cc1 [SSA 1]	93%	101%	5.4 ×10⁻⁶ cm/s	–	–

The next lines start with the values.

recovery at 120 min, 10 µM ([1]; read-out: Recovery (A-B))	recovery at 120 min, 10 µM ([1]; read-out: Recovery (B-A))	Papp B→A at 120 min, 10 µM [1, 3]	increase in FP, PG [2]	Papp B→A at 120 min, 10 µM [1, 4]	Structure (SMILES)
–	–	–	126 ± 5 mP	–	Cc1ccc2nc(-c3ccc(NC(=S)NCS(=O)(=O)O)cc3)sc2c1 [SSA 12]
54%	95%	6.7 ×10⁻⁶ cm/s	29 ± 2 mP	–	Cc1ccc2nc(-c3ccc(NC(=O)NCCCS(=O)(=O)O)cc3)sc2c1 [SSA 10]
–	–	–	209 ± 4 mP	–	Cc1ccc2nc(-c3ccc(NC(=O)NCC(=O)O)cc3)sc2c1 [SSA 11]
